# US9493460B2, “Diimide compounds” (UCL BUSINESS PLC, priority 2013, dated 2016)
# pIC50: −log10 of the molar value. Entries after “also recorded” stand apart in the source; their conditions may differ.
# Experiments:
# [1] = test system: MiaPaCa2 (pancreatic) cells; experiment: SRB growth inhibition assay, MiaPaCa2; assay type: cell-based, human
# Procedure, shortened: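 Growth inhibition of MiaPaCa2 cells was measured by SRB staining after 96 h exposure to 2-fold serial dilutions of compound dissolved in DMSO. IC50 was derived from mean absorbance at 540 nm expressed as a percentage of untreated control wells.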
# [2] = test system: A549 (lung) cells; experiment: SRB growth inhibition assay, 96 hr exposure, A549; assay type: cell-based, human; conditions: Homo sapiens, A549, 96 h exposure
# Procedure, shortened: (§1)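 SRB growth inhibition was measured after 96 h exposure to 2-fold serial dilutions of compound, with cells maintained at 37 °C in 5% CO2 and medium containing 10% FBS. Absorbance at 540 nm was expressed as a percentage of untreated control wells. IC50 was derived from these values.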
# [3] = test system: Panc1 (pancreatic) cells; experiment: SRB growth inhibition assay, 96 hr exposure, Panc1; assay type: cell-based, human; conditions: Homo sapiens, PANC-1, 96 h exposure
# Procedure, shortened: as §1
# [4] = test system: 83 human genes involved in DNA damage signaling responses in Mia-PaCa2 cells; experiment: qPCR array, DNA damage signaling response genes; assay type: cell-based
# Description: Following compound exposure, cells were washed twice in PBS, harvested by trypsinisation, collected by centrifugation (300 g, 5 min, 4° C.) and re-suspended in RLT buffer (Qiagen). Samples were homogenised using QIAshredder spin columns and stored at −80° C. prior to RNA extraction. Three biological replicates were performed on separate days.
# The expression of (i) 83 key human genes involved in telomere replication and maintenance, and (ii) 83 human genes involved in DNA damage signaling responses, was assessed using PCR arrays (SABiosciences). Total RNA was extracted from approximately 1×10^7 Mia-PaCa2 cells treated for 24 h with compound 3d, using the RNeasy kit (Qiagen) with on-column DNaseI treatment to remove residual genomic DNA. The quality of the harvested RNA was confirmed by nanodrop spectroscopy and by analysis with a Human RT^2 RNA QC PCR Array. First-strand cDNA synthesis was performed with the RT^2 first strand kit and qPCR was carried out using the RT^2 qPCR master mix (Qiagen) using 0.5 μg total RNA per array plate in a Stratagene MX-3000P instrument (Agilent, USA). Relative gene expression was determined by the ΔΔCT method using the web-based RT^2 Profiler™ PCR Array Data Analysis software (SABiosciences). Data were normalized to the geometric mean of five housekeeping genes (RPLP10, β-actin, B2M, GAPDH and HPRT1).
# Various quadruplex-stabilising agents are known to induce pronounced DNA damage responses. We therefore next assessed the effect of 3d on the transcription of genes associated with DNA damage response and repair pathways. For these pathways the effect of a cytotoxic dosage of 3d (160 nM) on Mia-PaCa2 cells was also tested to assess the correlation between compound-induced DNA damage and cell killing. […] The latter two groups appeared to reflect a dynamic switch in the cellular response from low-level growth inhibition up to 40 nM of 3d to cytostatic then cytotoxic effects at 80 nM and 160 nM respectively.
# Instead the response was dominated by genes with roles in growth arrest and more general stress responses.
# [5] = test system: Mia-PaCa2 cells; experiment: Senescence β-galactosidase staining; assay type: cell-based, human; conditions: 7 days treatment
# Description: FIG. 4. Micrographs showing the results of staining for evidence of cellular senescence in MiaPaCa2 cells using the β-galactosidase assay. Senescent cells are coloured blue in this procedure. Staining was performed after seven days treatments with (a) vehicle control, ×100 magnification, (b) 3.3 nM of compound 3d, ×200 magnification, (c) 6.6 nM of compound 3d, ×200 magnification, (d) 50 nM of compound 4, ×200 magnification, (e) plot of the percentage of senescent cells at the indicated concentrations of compounds 3d and 4, compared to the background senescence in this cell line (with vehicle control only). Cell counts were performed in triplicate and error bars represent estimated standard deviations.
# Senescence detection and quantification experiments were carried out using the Senescence β-galactosidase staining kit (Cell Signalling Technology, MA, USA) according to the manufacturer's protocol. Briefly, 1×10^5 cells were seeded in 6-well plates in 2 ml of medium supplemented with the test compound and incubated for 24 h. Cells were washed (2 ml PBS), fixed (2% formaldehyde and 2% glutaraldehyde in PBS, 15 min, room temperature) and washed (2×2 ml PBS) before staining overnight. Senescent cells, detected by their blue pigmentation, were counted using a light microscope.
# CDKN1A encodes the cyclin-dependent kinase p21WAF1 that induces replicative senescence, which is a well-studied consequence of telomerase inhibition and telomere maintenance disruption. […] Compounds 3b and 3d behaved in a similar manner to each other, with concentrations of 3-4 nM being sufficient to result in ˜50-60% of cells becoming senescent after this time-course.
# [6] = Pharmacokinetics after bolus IV injection; assay type: in vivo, Balb/c female mice; conditions: bolus IV 20 mg/kg, mice
# Excerpt: Balb/c female mice (7-8 weeks old) were housed in microisolator cages, fed with commercial mouse food (Food Harlam 2018, Madison, USA) and allowed to acclimatise for seven days before any procedure.
structure (smiles),measurement,setting,value
"CN1CCN(CCCNc2cc3c4c(c(NCCCN5CCN(C)CC5)cc5c4c2C(=O)N(CCCN2CCOCC2)C5=O)C(=O)N(CCCN2CCOCC2)C3=O)CC1 [Compound 3d, 4,9-bis((3-(4-methylpiperazin-1-yl)propyl)amino)-2,7-bis(3-morpholinopropyl)benzo[lmn][3,8]phenanthroline-1,3,6,8(2H,7H)-tetraone]",selectivity for Mia-PaCa2 compared to the normal fibroblast line WI-38,[1],~20 fold
same,pIC50,"[1]; Homo sapiens, MIA PaCa-2, SRB assay, 96 h exposure, read-out: IC50 Mia-PaCa2",7.70 to 8.00
same,growth response of MiaPaCa2 cells,[1]; exposure to 80 nM,no growth recovery
same,growth response of MiaPaCa2 cells,[1]; exposure to 160 nM,no viable cells could be recovered by 72 h
same,growth response of MiaPaCa2 cells,[1]; exposure to between 5 nM and 40 nM,titratable growth inhibition with subsequent full recovery of confluent growth at 144 h
same,pIC50,[2],7.70 to 8.00
same,pIC50,[3],7.70 to 8.00
same,expression of DNA damage checkpoint genes ATM and ATR,[4]; 24 h,no significant induction or repression
same,induction of γ-H2AX,"[4]; Mia-PaCa2 cells, data not shown",no apparent induction; also recorded: do not appear to induce these particular changes
same,"expression of CDKN1A, DDIT3 and GADD45G",[4]; cytotoxic concentrations,strongly up-regulated
same,expression of the PARP gene,[4]; dose-dependent,down-regulated
same,"expression of CDKN1A, DDIT3 and GADD45G",[4]; lower concentrations,strongly down-regulated
same,number of DNA damage response genes significantly increased or decreased greater than 2-fold,"[4]; of 83 genes, 20, 40, 80 or 160 nM, 24 h",16 genes
same,induction of senescence (in words),[5],strong induction of senescence
same,potency as inducer of cellular senescence relative to compound 4,[5],~10 fold
same,drug level at 24 hours,[6],no detectable drug
same,Cmax,"[6]; female, Balb/c, mouse, in vivo",1600 nM
same,half-life,"[6]; female, Balb/c, mouse, in vivo",4 h
